Like-named read-outs stand apart in the source and are kept apart here.
What was measured:
[1] = system: Phosphorylation of ERK1/2 in MIA PaCa-2 cells; experiment: Phospho-ERK1/2 MSD assay in MIA PaCa-2 cells; format: cell-based; details: read-out: p-ERK IC50 (2 h, MiaPaCa-2; μM), 2 h compound treatment, MIA PaCa-2 cells, EGF stimulated
In short: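 Phospho-ERK1/2 measured by MSD electrochemiluminescence kit in RIPA lysates of MIA PaCa-2 cells. Cells were treated with compound titrations for 2 or 4 h at 37 °C, 5% CO2, followed by a 10 min pulse of 10 ng/mL EGF.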

[2] = target: GDP-bound KRAS protein (aa 1-169), containing both G12C and C118A amino acid substitutions (Homo sapiens (Human), UniProt P01116, C118A/G12C); experiment: Coupled nucleotide exchange assay (SOS-mediated nucleotide exchange, AlphaScreen); format: biochemical; details: 5 min compound pre-incubation; for IC50: read-out: Coupled exchange IC50 (5 min; μM)
Chain of GDP-bound KRAS protein (aa 1-169), containing both G12C and C118A amino acid substitutions (P01116 other isoform, or with tags, fused parts or gaps G12C/C118A): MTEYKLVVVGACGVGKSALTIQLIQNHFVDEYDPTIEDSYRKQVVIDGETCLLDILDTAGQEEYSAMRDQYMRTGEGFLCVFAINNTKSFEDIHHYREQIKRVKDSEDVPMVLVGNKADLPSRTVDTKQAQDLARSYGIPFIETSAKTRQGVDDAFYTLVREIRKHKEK

[3] = system: Phosphorylation of ERK1/2 in A549 cells; experiment: Phospho-ERK1/2 MSD assay in A549 cells; format: cell-based; details: read-out: p-ERK IC50 (2 h, A549; μM), 2 h compound treatment, A549 cells, EGF stimulated
In short: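 MSD electrochemiluminescent read-out of phospho-ERK1/2 in RIPA lysates. Cells in RPMI 1640 with 10% FBS received titrated compound for 2 or 4 h, then 10 ng/mL EGF for 10 min before ice-cold PBS wash and lysis.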

Row | Coupled exchange IC50 (5 min; μM) [2] [µM] | Compound | IC50 ([1]; Homo sapiens, MIA PaCa-2, 2 h) [µM] | IC50 ([3]; Homo sapiens, A549, 2 h) [µM] | IC50 [1] [µM] | IC50 [2] [µM] | IC50 [3] [µM]
1 | 0.054 | C=CC(=O)N1C[C@H](C)N(c2nc(=O)n(-c3c(C)ccnc3C(C)C)c3nc(-c4ccccc4C(C)O)c(Cl)cc23)C[C@H]1C (mixture of isomers) [Example 92-43, (M)-6-Chloro-4-[(2S,5R)-2,5-dimethyl-4-prop-2-enoyl-piperazin-1-yl]-7-[2-[(1RS)-1-hydroxyethyl]phenyl]-1-(2-isopropyl-4-methyl-3-pyridyl)pyrido [2,3-d]pyrimidin-2-one] | 0.076 | > 7.5 |  |  | 
2 |  | C=CC(=O)N1C[C@H](C)N(c2nc(=O)n(-c3c(N(C)C)ccnc3C(C)C)c3nc(-c4ccccc4F)c(Cl)cc23)C[C@H]1C (single isomer, unassigned) [Example 55-51-1] |  |  | 0.157 | 0.298 | > 7.5
3 |  | C=CC(=O)N1C[C@H](C)N(c2nc(=O)n(-c3c(N(C)C)ccnc3C(C)C)c3nc(-c4ccccc4F)c(Cl)cc23)C[C@H]1C (single isomer, unassigned) [Example 55-51-2] |  |  | 0.037 | 0.07 | > 7.5
4 |  | C=CC(=O)N1C[C@H](C)N(c2nc(=O)n(-c3c(CC)ccnc3C(C)C)c3nc(-c4ccccc4F)c(Cl)cc23)C[C@H]1C (single isomer, unassigned) [Example 55-58-1] |  |  | 0.107 | 0.03 | > 7.5
5 |  | C=CC(=O)N1C[C@H](C)N(c2nc(=O)n(-c3c(CC)ccnc3C(C)C)c3nc(-c4ccccc4F)c(Cl)cc23)C[C@H]1C (single isomer, unassigned) [Example 55-58-2] |  |  | 0.101 | 0.092 | > 7.5
6 |  | C=CC(=O)N1C[C@H](C)N(c2nc(=O)n(-c3c(CN4CCCC4)cccc3C(C)C)c3nc(-c4ccccc4F)c(Cl)cc23)C[C@H]1C (single isomer, unassigned) [Example 80-10-2] |  |  | 0.04 | 0.053 | > 7.5
7 |  | C=CC(=O)N1C[C@H](C)N(c2nc(=O)n(-c3c(CN(C)C)cccc3C(C)C)c3nc(-c4ccccc4F)c(Cl)cc23)C[C@H]1C (single isomer, unassigned) [Example 80-14-2] | 0.031 | > 7.5 |  | 0.061 | 
8 |  | C=CC(=O)N1C[C@H](C)N(c2nc(=O)n(-c3c(CN(C)C)ccnc3C(C)C)c3nc(-c4ccccc4F)c(Cl)cc23)C[C@H]1C (single isomer, unassigned) [Example 80-16-1] | 0.041 | > 7.5 |  | 0.061 | 
9 |  | C=CC(=O)N1C[C@H](C)N(c2nc(=O)n(-c3c(CN(C)C)ncnc3C(C)C)c3nc(-c4ccccc4F)c(Cl)cc23)C[C@H]1C (single isomer, unassigned) [Example 80-18-2] | 0.044 | > 7.5 |  | 0.11 | 
10 |  | C=CC(=O)N1C[C@H](C)N(c2nc(=O)n(-c3c(C)cc(CN(C)C)cc3C(C)C)c3nc(-c4ccccc4F)c(F)cc23)C[C@H]1C (single isomer, unassigned) [Example 80-20-2] |  |  | 0.295 | 0.368 | > 7.5
11 |  | C=CC(=O)N1C[C@H](C)N(c2nc(=O)n(-c3c(C)cc(CN(C)C)cc3C(C)C)c3nc(-c4c(O)cccc4F)c(F)cc23)C[C@H]1C (single isomer, unassigned) [Example 80-21-2] |  |  | 0.072 | 0.061 | > 7.5
12 |  | C=CC(=O)N1C[C@H](C)N(c2nc(=O)n(-c3c(C(C)C)cnn3C(C)C)c3nc(-c4ccccc4F)c(Cl)cc23)C[C@H]1C (single isomer, unassigned) [Example 100-1-1] |  |  | 0.091 | 0.061 | > 7.5
13 |  | C=CC(=O)N1C[C@H](C)N(c2nc(=O)n(-c3c(C(C)C)cnn3C(C)C)c3nc(-c4ccccc4F)c(Cl)cc23)C[C@H]1C (single isomer, unassigned) [Example 100-1-2] |  |  | 0.098 | 0.062 | > 7.5
14 |  | C=CC(=O)N1C[C@H](C)N(c2nc(=O)n(-c3c(Cl)ncnc3C(C)C)c3nc(-c4ccccc4F)c(Cl)cc23)C[C@H]1C (single isomer, unassigned) [Example 102-5-1] |  |  | 0.058 | 0.031 | > 7.5
15 |  | C=CC(=O)N1C[C@H](C)N(c2nc(=O)n(-c3c(Cl)ncnc3C(C)C)c3nc(-c4ccccc4F)c(Cl)cc23)C[C@H]1C (single isomer, unassigned) [Example 102-5-2] |  |  | 0.873 | 0.173 | > 7.5
16 |  | C=CC(=O)N1C[C@H](C)N(c2nc(=O)n(-c3c(Cl)ncnc3C(C)C)c3nc(-c4ccccc4C)c(Cl)cc23)C[C@H]1C (single isomer, unassigned) [Example 102-6-1] |  |  | 0.056 | 0.094 | > 7.5

Row | Coupled exchange IC50 (5 min; μM) [2] [µM] | Compound | IC50 ([1]; Homo sapiens, MIA PaCa-2, 2 h) [µM] | IC50 ([3]; Homo sapiens, A549, 2 h) [µM] | IC50 [1] [µM] | IC50 [2] [µM] | IC50 [3] [µM]
17 |  | C=CC(=O)N1C[C@H](C)N(c2nc(=O)n(-c3c(C)cc(P(C)(C)=O)cc3C(C)C)c3nc(-c4ccccc4F)c(Cl)cc23)C[C@H]1C (single isomer, unassigned) [Example 102-7-1] | 1.06 | > 7.5 |  | 0.181 | 
18 |  | C=CC(=O)N1C[C@H](C)N(c2nc(=O)n(-c3c(N(C)C)ccnc3C(C)C)c3nc(-c4ccccc4C(C)C)c(Cl)cc23)C[C@H]1C (single isomer, unassigned) [Example 103-1-2] |  |  | 0.039 | 0.053 | > 7.5
19 |  | C=CC(=O)N1C[C@H](C)N(c2nc(=O)n(-c3c(N(CC)CC)ccnc3C(C)C)c3nc(-c4ccccc4C(C)C)c(Cl)cc23)C[C@H]1C (single isomer, unassigned) [Example 103-6-2] |  |  | 0.26 | 0.112 | 5.19
20 |  | C=CC(=O)N1C[C@H](C)N(c2nc(=O)n(-c3c(N(C)C)ccnc3C(C)C)c3nc(-c4ccccc4C)c(Cl)cc23)C[C@H]1C (single isomer, unassigned) [Example 103-7-2] |  |  | 0.052 | 0.088 | > 7.5
21 |  | C=CC(=O)N1C[C@H](C)N(c2nc(=O)n(-c3c(C)ccnc3C(C)C)c3nc(-c4ccccc4F)c(Cl)nc23)C[C@H]1C (single isomer, unassigned) [Example 106-6-2] | 0.301 | > 7.5 |  | 0.059 | 
22 |  | C=CC(=O)N1C[C@H](C)N(c2nc(=O)n(-c3c(C(C)C)ncnc3C3CC3)c3nc(-c4ccccc4F)c(Cl)cc23)C[C@H]1C (single isomer, unassigned) [Example 108-1-1] |  |  | 0.021 | 0.006 | > 7.5
23 |  | C=CC(=O)N1C[C@H](C)N(c2nc(=O)n(-c3c(C(C)C)ncnc3C3CC3)c3nc(-c4ccccc4F)c(Cl)cc23)C[C@H]1C (single isomer, unassigned) [Example 108-1-2] |  |  | 0.054 | 0.008 | > 7.5
24 |  | C=CC(=O)N1C[C@H](C)N(c2nc(=O)n(-c3c(C(C)C)ncnc3C3CC3)c3nc(-c4ccccc4C)c(Cl)cc23)C[C@H]1C (single isomer, unassigned) [Example 108-2-1] |  |  | 0.046 | 0.035 | > 7.5
25 |  | C=CC(=O)N1C[C@H](C)N(c2nc(=O)n(-c3c(C(C)C)ncnc3C3CC3)c3nc(-c4ccccc4C)c(Cl)cc23)C[C@H]1C (single isomer, unassigned) [Example 108-2-2] |  |  | 0.148 | 0.181 | > 7.5
26 |  | C=CC(=O)N1C[C@H](C)N(c2nc(=O)n(-c3c(CC)ncnc3C(C)C)c3nc(-c4ccccc4F)c(Cl)cc23)C[C@H]1C (single isomer, unassigned) [Example 109-1-1] |  |  | 0.045 | 0.06 | > 7.5
27 |  | C=CC(=O)N1C[C@H](C)N(c2nc(=O)n(-c3c(CC)ncnc3C(C)C)c3nc(-c4ccccc4F)c(Cl)cc23)C[C@H]1C (single isomer, unassigned) [Example 109-1-2] |  |  | 0.08 | 0.209 | > 7.5
28 |  | C=CC(=O)N1C[C@H](C)N(c2nc(=O)n(-c3c(CC)ncnc3C(C)C)c3nc(-c4ccccc4C)c(Cl)cc23)C[C@H]1C (single isomer, unassigned) [Example 109-2-1] |  |  | 0.065 | 0.059 | > 7.5
29 | 0.066 | C=CC(=O)N1C[C@H](C)N(c2nc(=O)n(-c3c(C)cc(CN(C)C)cc3C(C)C)c3nc(-c4ccccc4F)c(Cl)cc23)C[C@H]1C (single isomer, unassigned) [Example 121-3] | 0.027 | > 7.5 |  |  | 
30 |  | C=CC(=O)N1C[C@H](C)N(c2nc(=O)n(-c3c(N(C)C)ccnc3C(C)C)c3nc(-c4c(F)cccc4NC(=O)CC)c(Cl)cc23)C[C@H]1C (single isomer, unassigned) [Example 122-2-2] |  | > 7.5 | 0.63 | 0.088 | 
31 |  | C=CC(=O)N1C[C@H](C)N(c2nc(=O)n(-c3c(N(C)C)ccnc3C(C)C)c3nc(-c4c(F)cccc4NC(=O)C4CC4)c(Cl)cc23)C[C@H]1C (single isomer, unassigned) [Example 122-3-2] | 0.145 | > 7.5 |  | 0.179 | 
32 |  | C=CC(=O)N1[C@H](C)CN(c2nc(=O)n(-c3c(C)cc(N)nc3C(C)C)c3nc(-c4c(O)cccc4F)c(F)cc23)C[C@@H]1C (single isomer, unassigned) [Example 123-2] | 0.26 | > 7.5 |  | 0.4 | 

From patent publication US11285156B2, “Substituted piperazines as KRAS G12C inhibitors” (Amgen Inc., priority 2018, dated 2022)
